Test results: PubChem BioAssay AID272 (DTP/NCI, 2004)
Several values for one entry are separate records, joined by “and”; a condition that tells them apart may be missing. Equal entries are not always repeated. Records with an inconclusive call do not appear.

Tested on: Lewis lung carcinoma i.m., BDF1 mice, T/C %
Assay: NCI In Vivo Anticancer Drug Screen. Data for tumor model Lewis Lung Carcinoma (intramuscular) in B6D2F1 (BDF1) mice
Procedure, shortened: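 Tumour-bearing mice were dosed with compound, and either their survival or their tumour size was measured. Results were expressed relative to vehicle-treated controls as T/C.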

[1] = endpoint: mean tumor weight (est.), dose: 50.0 mg/kg/injection, schedule: Q01DX011 (ip), vehicle: saline with Tween-80, higher = larger tumour
[2] = endpoint: mean tumor weight (est.), dose: 100.0 mg/kg/injection, schedule: Q01DX011 (ip), vehicle: saline with Tween-80, higher = larger tumour
[3] = endpoint: median survival time, dose: 50.0 mg/kg/injection, schedule: Q01DX011 (ip), vehicle: saline with Tween-80, higher = longer survival
[4] = endpoint: median survival time, dose: 100.0 mg/kg/injection, schedule: Q01DX011 (ip), vehicle: saline with Tween-80, higher = longer survival

In the case of `CN(C)C(=S)S`, the T/C (endpoint: mean tumor weight, dose: 125.0 mg/kg/injection, schedule: Q01DX011 (ip), vehicle: saline, higher = larger tumour) is reported as 58 % of control and 59 % of control, the T/C (endpoint: mean tumor weight, dose: 250.0 mg/kg/injection, schedule: Q01DX011 (ip), vehicle: saline, higher = larger tumour) is reported as 57 % of control and the T/C (endpoint: median survival time, dose: 125.0 mg/kg/injection, schedule: Q01DX011 (ip), vehicle: saline, higher = longer survival) is reported as 102 % of control.

In the case of `CC1=Nc2ccccc2/C1=C\c1c(C)[nH]c2ccccc12`, the T/C (endpoint: mean tumor weight (est.), dose: 25.0 mg/kg/injection, schedule: Q01DX011 (ip), vehicle: saline with Tween-80, higher = larger tumour) is reported as 52 % of control, the T/C [1] is reported as 68 % of control and the T/C [2] is reported as 29 % of control. The T/C (endpoint: median survival time, dose: 25.0 mg/kg/injection, schedule: Q01DX011 (ip), vehicle: saline with Tween-80, higher = longer survival) was 104 % of control, the T/C [3] was 93 % of control and the T/C [4] was 100 % of control.

With `NC(Cc1c[nH]c2ccc(N(CCCl)CCCl)cc12)C(=O)O` (stereo not given) the T/C (endpoint: mean tumor weight, dose: 0.06 mg/kg/injection, schedule: Q01DX011 (ip), vehicle: other, higher = larger tumour) was 90 % of control, the T/C (endpoint: mean tumor weight, dose: 0.12 mg/kg/injection, schedule: Q01DX011 (ip), vehicle: other, higher = larger tumour) was 96 % of control and the T/C (endpoint: mean tumor weight, dose: 0.25 mg/kg/injection, schedule: Q01DX011 (ip), vehicle: other, higher = larger tumour) was 105 % of control. For the same molecule, the T/C (endpoint: mean tumor weight, dose: 0.5 mg/kg/injection, schedule: Q01DX011 (ip), vehicle: other, higher = larger tumour) was 97 % of control, the T/C (endpoint: mean tumor weight, dose: 1.0 mg/kg/injection, schedule: Q01DX011 (ip), vehicle: other, higher = larger tumour) was 83 % of control and the T/C (endpoint: mean tumor weight, dose: 2.0 mg/kg/injection, schedule: Q01DX011 (ip), vehicle: other, higher = larger tumour) was 103 % of control. The T/C (endpoint: median survival time, dose: 0.06 mg/kg/injection, schedule: Q01DX011 (ip), vehicle: other, higher = longer survival) was 94 % of control, the T/C (endpoint: median survival time, dose: 0.12 mg/kg/injection, schedule: Q01DX011 (ip), vehicle: other, higher = longer survival) was 102 % of control and the T/C (endpoint: median survival time, dose: 0.25 mg/kg/injection, schedule: Q01DX011 (ip), vehicle: acid diluted with saline, higher = longer survival) was 89 % of control. The T/C (endpoint: median survival time, dose: 0.25 mg/kg/injection, schedule: Q01DX011 (ip), vehicle: other, higher = longer survival) was 86 % of control, the T/C (endpoint: median survival time, dose: 0.5 mg/kg/injection, schedule: Q01DX011 (ip), vehicle: acid diluted with saline, higher = longer survival) was 105 % of control and the T/C (endpoint: median survival time, dose: 0.5 mg/kg/injection, schedule: Q01DX011 (ip), vehicle: other, higher = longer survival) was 96 % of control. The T/C (endpoint: median survival time, dose: 1.0 mg/kg/injection, schedule: Q01DX011 (ip), vehicle: other, higher = longer survival) was 104 % of control.

`COc1ccc(OC)c(/C=C/c2ccnc3ccccc23)c1` was tested, and the T/C [1] was 84 % of control, the T/C [2] was 75 % of control and the T/C (endpoint: mean tumor weight (est.), dose: 400.0 mg/kg/injection, schedule: Q01DX011 (ip), vehicle: saline with Tween-80, higher = larger tumour) was 77 % of control. For the same molecule, the T/C [3] was 100 % of control and the T/C [4] was 102 % of control.

For `Nc1ncc(N)c(N)n1`, the T/C (endpoint: mean tumor weight (est.), dose: 40.0 mg/kg/injection, schedule: Q01DX011 (ip), vehicle: saline, higher = larger tumour) was 80 % of control, the T/C (endpoint: mean tumor weight (est.), dose: 80.0 mg/kg/injection, schedule: Q01DX011 (ip), vehicle: saline, higher = larger tumour) was 88 % of control and the T/C (endpoint: mean tumor weight (est.), dose: 160.0 mg/kg/injection, schedule: Q01DX011 (ip), vehicle: saline, higher = larger tumour) was 119 % of control. For the same molecule, the T/C (endpoint: median survival time, dose: 40.0 mg/kg/injection, schedule: Q01DX011 (ip), vehicle: saline, higher = longer survival) was 103 % of control, the T/C (endpoint: median survival time, dose: 80.0 mg/kg/injection, schedule: Q01DX011 (ip), vehicle: saline, higher = longer survival) was 98 % of control and the T/C (endpoint: median survival time, dose: 160.0 mg/kg/injection, schedule: Q01DX011 (ip), vehicle: saline, higher = longer survival) was 94 % of control.

For `CNNCc1ccc(C(=O)NC(C)C)cc1`, the T/C (endpoint: mean tumor weight (est.), dose: 23.0 mg/kg/injection, schedule: Q01DX009 (ip), vehicle: saline, higher = larger tumour) was 86 % of control, the T/C (endpoint: mean tumor weight (est.), dose: 39.0 mg/kg/injection, schedule: Q01DX009 (ip), vehicle: saline, higher = larger tumour) was 95 % of control and the T/C (endpoint: mean tumor weight (est.), dose: 65.0 mg/kg/injection, schedule: Q01DX009 (ip), vehicle: saline, higher = larger tumour) was 64 % of control. For the same molecule, the T/C (endpoint: mean tumor weight (est.), dose: 108.0 mg/kg/injection, schedule: Q01DX009 (ip), vehicle: saline, higher = larger tumour) was 79 % of control, the T/C (endpoint: mean tumor weight (est.), dose: 180.0 mg/kg/injection, schedule: Q01DX009 (ip), vehicle: saline, higher = larger tumour) was 95 % of control and the T/C (endpoint: mean tumor weight (est.), dose: 300.0 mg/kg/injection, schedule: Q01DX009 (ip), vehicle: saline, higher = larger tumour) was 37 % of control. For the same molecule, the T/C (endpoint: mean tumor weight, dose: 23.0 mg/kg/injection, schedule: Q01DX011 (ip), vehicle: saline, higher = larger tumour) was 100 % of control, the T/C (endpoint: mean tumor weight, dose: 37.5 mg/kg/injection, schedule: Q01DX011 (ip), vehicle: saline, higher = larger tumour) was 78 % of control and the T/C (endpoint: mean tumor weight, dose: 39.0 mg/kg/injection, schedule: Q01DX011 (ip), vehicle: saline, higher = larger tumour) was 72 % of control. For the same molecule, the T/C (endpoint: mean tumor weight, dose: 65.0 mg/kg/injection, schedule: Q01DX011 (ip), vehicle: saline, higher = larger tumour) was 37 % of control, the T/C (endpoint: mean tumor weight, dose: 75.0 mg/kg/injection, schedule: Q01DX011 (ip), vehicle: saline, higher = larger tumour) was 62 % of control and the T/C (endpoint: mean tumor weight, dose: 108.0 mg/kg/injection, schedule: Q01DX011 (ip), vehicle: saline, higher = larger tumour) was 62 % of control. The T/C (endpoint: mean tumor weight, dose: 150.0 mg/kg/injection, schedule: Q01DX011 (ip), vehicle: saline, higher = larger tumour) was 35 % of control, the T/C (endpoint: mean tumor weight, dose: 180.0 mg/kg/injection, schedule: Q01DX011 (ip), vehicle: saline, higher = larger tumour) was 41 % of control and the T/C (endpoint: median survival time, dose: 37.5 mg/kg/injection, schedule: Q01DX011 (ip), vehicle: saline, higher = longer survival) was 97 % of control. For the same molecule, the T/C (endpoint: median survival time, dose: 75.0 mg/kg/injection, schedule: Q01DX011 (ip), vehicle: saline, higher = longer survival) was 91 % of control and the T/C (endpoint: median survival time, dose: 150.0 mg/kg/injection, schedule: Q01DX011 (ip), vehicle: saline, higher = longer survival) was 95 % of control.
